Patent publication US20250144067A1, “PERSONALIZED STARVATION THERAPY FOR CANCER” (Faeth Therapeutics, Inc., priority 2021, published 2025)
Where a name gives a salt, the structure may show the parent alone.

Tests used:
[1] = test system: NCI-H292 lung cancer cells; experiment: FDA drug screening, complete media vs cholesterol-free media without statin (TABLE 1); format: cell-based, human
[2] = test system: NCI-H292 lung cancer cells; experiment: FDA drug screening, complete media vs cholesterol-free media with simvastatin (TABLE 2); format: cell-based, human; settings: for Cholesterol-free media + simvastatin (0.04 μM) / Complete Media: NCI-H292 cells
[3] = Complete minus Cholesterol-free, greater than 0 enhanced anti-cancer activity, about 0 neutral, below 0 antagonist
[4] = NCI-H292 cells, FDA drug library screen, cholesterol-free media without statin
[5] = NCI-H292 cells, FDA drug library screen, complete media
[6] = FDA drug library screen, cholesterol-free media with simvastatin 0.04 μM
[7] = complete media minus cholesterol-free media + simvastatin, >0 enhanced anti-cancer activity, about 0 neutral, <0 antagonist
[8] = NCI-H292 cells, cholesterol-free media without statin
[9] = complete vs cholesterol-free media, greater than 0 enhanced anti-cancer activity, about 0 neutral, below 0 antagonists
[10] = FDA drug library screen, complete media
[11] = complete media vs cholesterol-free media + simvastatin (0.04 μM), >0 enhanced anti-cancer activity, about 0 neutral, <0 antagonist
[12] = cholesterol-free media with simvastatin 0.04 μM, FDA drug library screen (TABLE 2)
[13] = complete media, FDA drug library screen (TABLE 2)
[14] = complete media minus cholesterol-free media + simvastatin (0.04 μM), >0 enhanced anti-cancer activity, about 0 neutral, <0 antagonist
[15] = Complete minus Cholesterol-free, >0 enhanced anti-cancer activity, about 0 neutral, <0 antagonist
[16] = NCI-H292 cells, cholesterol-free media without statin, FDA drug library screen
[17] = NCI-H292 cells, complete media, FDA drug library screen
[18] = drug in cholesterol-free media with simvastatin 0.04 μM
[19] = FDA library drug in cholesterol-free media with simvastatin 0.04 μM
[20] = FDA library drug in complete media
[21] = Complete minus Cholesterol-free, […]
[22] = complete media vs cholesterol-free media + simvastatin (0.04 μM), […]
[23] = Complete minus Cholesterol-free, greater than 0 enhanced anti-cancer activity, about 0 neutral, below 0 antagonists
[24] = NCI-H292 cells in cholesterol-free media without statin
[25] = NCI-H292 cells in complete media
[26] = cholesterol-free media with simvastatin 0.04 μM, cell growth value in FDA drug screen
[27] = complete media, cell growth value in FDA drug screen

## CC(=O)OCC(=O)[C@@]1(OC(C)=O)[C@@H](C)C[C@H]2[C@@H]3C[C@H](F)C4=CC(=O)C=C[C@]4(C)[C@@]3(F)[C@@H](O)C[C@@]21C [Diflorasone]
[1]; [3]
  Difference: −0.10
[1]; [4]
  Cholesterol-free: 0.7536
[1]; [5]
  Complete: 0.6518
[2]; [6]
  Cholesterol-free media + simvastatin (0.04 μM): 0.8775
[2]; [7]
  Difference: 0.30

## Cn1nnc2c(C(N)=O)ncn2c1=O [Temozolomide]
[1]; [8]
  Cholesterol-free: 1.265
[1]; NCI-H292 cells, complete media
  Complete: 0.9503
[1]; [9]
  Difference: −0.31
[2]; [6]
  Cholesterol-free media + simvastatin (0.04 μM): 0.984
[2]; [10]
  Complete Media: 0.8242
[2]; [11]
  Difference: −0.16

## Nc1nc2c(ncn2CCC(CO)CO)c(=O)[nH]1 [Penciclovir]
[1]; [8]
  Cholesterol-free: 0.9605
[1]; NCI-H292 cells, complete media
  Complete: 0.6394
[1]; [9]
  Difference: −0.32
[2]; [12]
  Cholesterol-free media + simvastatin (0.04 μM): 1.351
[2]; [13]
  Complete Media: 1.353
[2]; [14]
  Difference: 0.00

## CC(C)(O)C(Cl)(Cl)Cl [Chlorobutanol]
[1]; [15]
  Difference: 0.02
[1]; [16]
  Cholesterol-free: 0.5641
[1]; [17]
  Complete: 0.5799
[2]; [18]
  Cholesterol-free media + simvastatin (0.04 μM): 1.763
[2]; drug in complete media
  Complete Media: 1.523
[2]; [11]
  Difference: −0.24

## Cc1ccc(Sc2ccccc2N2CCNCC2)c(C)c1 [Vortioxetine]
[1]; [16]
  Cholesterol-free: 0.5855
[1]; [17]
  Complete: 0.993
[1]; complete vs cholesterol-free media, >0 enhanced anti-cancer activity, about 0 neutral, <0 antagonist
  Difference: 0.41
[2]; [19]
  Cholesterol-free media + simvastatin (0.04 μM): 1.222
[2]; [20]
  Complete Media: 0.843
[2]; [11]
  Difference: −0.38

## NC(=O)N1c2ccccc2C=Cc2ccccc21 [Carbamazepine]
[1]; [8]
  Cholesterol-free: 1.302
[1]; NCI-H292 cells, complete media
  Complete: 0.9337
[1]; [9]
  Difference: −0.37
[2]; [18]
  Cholesterol-free media + simvastatin (0.04 μM): 1.226
[2]; drug in complete media
  Complete Media: 0.9955
[2]; [11]
  Difference: −0.23

## CN(C)c1cc(NC(=O)CNC(C)(C)C)c(O)c2c1C[C@H]1C[C@H]3[C@H](N(C)C)C(O)=C(C(N)=O)C(=O)[C@@]3(O)C(O)=C1C2=O [Tigecycline]
[1]; [21]
  Difference: −0.13
[1]; [4]
  Cholesterol-free: 1.231
[1]; [5]
  Complete: 1.106
[2]; [19]
  Cholesterol-free media + simvastatin (0.04 μM): 1.179
[2]; [20]
  Complete Media: 0.8929
[2]; [22]
  Difference: −0.29

## CC(C)NC[C@H](O)COc1cccc2ccccc12.Cl [(S)-(−)-Propranolol (hydrochloride)]
[1]; [23]
  Difference: −0.61
[1]; [24]
  Cholesterol-free: 1.5
[1]; [25]
  Complete: 0.8879
[2]; [12]
  Cholesterol-free media + simvastatin (0.04 μM): 1.665
[2]; [13]
  Complete Media: 1.663
[2]; [14]
  Difference: 0.00

## C=C1C[C@@H]2[C@H](CC[C@]3(C)C(=O)CC[C@@H]23)[C@@]2(C)C=CC(=O)C=C12 [Exemestane]
[1]; [15]
  Difference: −0.01
[1]; [16]
  Cholesterol-free: 1.056
[1]; [17]
  Complete: 1.048
[2]; [19]
  Cholesterol-free media + simvastatin (0.04 μM): 1.215
[2]; [20]
  Complete Media: 0.9053
[2]; [11]
  Difference: −0.31

## C=CC(=O)Nc1cc(Nc2nccc(-c3cn(C)c4ccccc34)n2)c(OC)cc1N(C)CCN(C)C [Osimertinib]
[1]; [3]
  Difference: −0.14
[1]; [4]
  Cholesterol-free: 0.477
[1]; [5]
  Complete: 0.3332
[2]; [26]
  Cholesterol-free media + simvastatin (0.04 μM): 0.2666
[2]; [27]
  Complete Media: 0.3123
[2]; [7]
  Difference: 0.05

## OCCN(CCO)c1nc(N2CCCCC2)c2nc(N(CCO)CCO)nc(N3CCCCC3)c2n1 [Dipyridamole]
[1]; [23]
  Difference: −0.51
[1]; [24]
  Cholesterol-free: 1.48
[1]; [25]
  Complete: 0.9729
[2]; [26]
  Cholesterol-free media + simvastatin (0.04 μM): 0.9652
[2]; [27]
  Complete Media: 1.095
[2]; [7]
  Difference: 0.13

## Cl.Cl.OCCN1CCN(CCC=C2c3ccccc3Sc3ccc(C(F)(F)F)cc32)CC1 (mixture of isomers) [Flupentixol dihydrochloride]
[1]; [8]
  Cholesterol-free: 1.101
[1]; NCI-H292 cells, complete media
  Complete: 0.7804
[1]; [9]
  Difference: −0.32
[2]; [6]
  Cholesterol-free media + simvastatin (0.04 μM): 0.5255
[2]; [10]
  Complete Media: 1.084
[2]; [7]
  Difference: 0.56

## CO[C@@H]1[C@H](N(C)C(=O)c2ccccc2)C[C@H]2O[C@]1(C)n1c3ccccc3c3c4c(c5c6ccccc6n2c5c31)C(=O)NC4 [Midostaurin]
[1]; [15]
  Difference: 0.06
[1]; [16]
  Cholesterol-free: 0.3336
[1]; [17]
  Complete: 0.3958
[2]; [6]
  Cholesterol-free media + simvastatin (0.04 μM): 0.6712
[2]; [10]
  Complete Media: 0.5312
[2]; [11]
  Difference: −0.14

## CCCCc1nc(Cl)c(CO)n1Cc1ccc(-c2ccccc2-c2nn[nH]n2)cc1 [Losartan]
[1]; [15]
  Difference: −0.28
[1]; [8]
  Cholesterol-free: 1.549
[1]; NCI-H292 cells, complete media
  Complete: 1.271
[2]; [19]
  Cholesterol-free media + simvastatin (0.04 μM): 1.37
[2]; [20]
  Complete Media: 0.8741
[2]; [11]
  Difference: −0.50

## CCNC(=O)CCC/C=C\C[C@@H]1[C@@H](/C=C/[C@@H](O)CCc2ccccc2)[C@H](O)C[C@@H]1O [Bimatoprost]
[1]; [8]
  Cholesterol-free: 1.545
[1]; NCI-H292 cells, complete media
  Complete: 1.142
[1]; [9]
  Difference: −0.40
[2]; [19]
  Cholesterol-free media + simvastatin (0.04 μM): 1.43
[2]; [20]
  Complete Media: 0.9569
[2]; [11]
  Difference: −0.47

## Fc1ccc([C@@H]2CCNC[C@H]2COc2ccc3c(c2)OCO3)cc1 [Paroxetine (hydrochloride)]
[1]; [15]
  Difference: −0.22
[1]; [8]
  Cholesterol-free: 1.09
[1]; NCI-H292 cells, complete media
  Complete: 0.8739
[2]; [12]
  Cholesterol-free media + simvastatin (0.04 μM): 0.916
[2]; [13]
  Complete Media: 0.9086
[2]; [14]
  Difference: −0.01

## CC1CCC(C(C)C)C(O)C1 (racemic) [DL-Menthol]
[1]; [8]
  Cholesterol-free: 1.299
[1]; NCI-H292 cells, complete media
  Complete: 0.8907
[1]; [9]
  Difference: −0.41
[2]; [6]
  Cholesterol-free media + simvastatin (0.04 μM): 0.8922
[2]; [10]
  Complete Media: 1.05
[2]; [7]
  Difference: 0.16

## Dihydroergocristine (mesylate)
[1]; [21]
  Difference: −0.17
[2]; [6]
  Cholesterol-free media + simvastatin (0.04 μM): 1.12
[2]; [10]
  Complete Media: 1.011
[2]; [22]
  Difference: −0.11

## C[C@H](NCc1ccc(OCc2cccc(F)c2)cc1)C(N)=O [Safinamide]
[1]; [3]
  Difference: −0.13
[1]; [4]
  Cholesterol-free: 1.086
[1]; [5]
  Complete: 0.9537
[2]; [12]
  Cholesterol-free media + simvastatin (0.04 μM): 1.059
[2]; [13]
  Complete Media: 1.012
[2]; [14]
  Difference: −0.05

## Cc1cc(S(=O)(=O)O)c2c(C)ccc(C(C)C)cc1-2 [Sodium gualenate]
[1]; [3]
  Difference: −0.12
[1]; [4]
  Cholesterol-free: 0.9704
[1]; [5]
  Complete: 0.8542
[2]; [12]
  Cholesterol-free media + simvastatin (0.04 μM): 0.8796
[2]; [13]
  Complete Media: 0.8094
[2]; [14]
  Difference: −0.07

## CN1C(C(=O)Nc2ccccn2)=C(O)c2sccc2S1(=O)=O [Tenoxicam]
[1]; [8]
  Cholesterol-free: 1.354
[1]; NCI-H292 cells, complete media
  Complete: 0.9821
[1]; [9]
  Difference: −0.37
[2]; [6]
  Cholesterol-free media + simvastatin (0.04 μM): 0.6836
[2]; [10]
  Complete Media: 0.8819
[2]; [7]
  Difference: 0.20

## Nc1ccn([C@@H]2CS[C@H](CO)O2)c(=O)n1 [Lamivudine]
[1]; [15]
  Difference: −0.22
[1]; [8]
  Cholesterol-free: 1.216
[1]; NCI-H292 cells, complete media
  Complete: 0.9947
[2]; [19]
  Cholesterol-free media + simvastatin (0.04 μM): 1.644
[2]; [11]
  Difference: −0.47

## CC(=O)O[C@H]1C[C@@H]2CC[C@@H]3[C@H](CC[C@@]4(C)[C@H]3C[C@H]([N+]3(C)CCCCC3)[C@@H]4OC(C)=O)[C@@]2(C)C[C@@H]1[N+]1(C)CCCCC1.[Br-].[Br-] [Pancuronium (dibromide)]
[1]; [8]
  Cholesterol-free: 1.193
[1]; NCI-H292 cells, complete media
  Complete: 0.8678
[1]; complete vs cholesterol-free media, […]
  Difference: −0.33
[2]; [18]
  Cholesterol-free media + simvastatin (0.04 μM): 1.121
[2]; drug in complete media
  Complete Media: 0.885
[2]; [22]
  Difference: −0.24
